# Test system: MV-4-11 cells
# Assay: Gene expression microarray analysis (Affymetrix PrimeView) and GSEA
# Assay type: cell-based, human
# Set-up: RFU PODN (11730768_x_at) / Fold change /veh PODN (11730768_x_at) / RFU LINC00158 (11744669_a_at) / Fold change /veh LINC00158 (11744669_a_at) / RFU DUSP10 (11751237_a_at) / Fold change /veh DUSP10 (11751237_a_at) / RFU ID3 (11757404_x_at) / Fold change /veh ID3 (11757404_x_at) / RFU PLEKHG5 (11737974_s_at) / Fold change /veh PLEKHG5 (11737974_s_at) / RFU LRRC4B (11730491_at) / Fold change /veh LRRC4B (11730491_at) / RFU GIMAP4 (11747438_a_at) / Fold change /veh GIMAP4 (11747438_a_at) / RFU KRT8 (11758183_x_at) / Fold change /veh KRT8 (11758183_x_at) / RFU CNN1 (11734310_a_at) / Fold change /veh CNN1 (11734310_a_at) / RFU VPS37D (11726825_at) / Fold change /veh VPS37D (11726825_at) / RFU C10orf10 (11716522_x_at) / Fold change /veh C10orf10 (11716522_x_at) / RFU KIR2DL2 /// KIR2DL4 /// KIR2DL5A /// KIR2DL5B /// KIR2DS1 /// KIR2DS2 /// KIR2DS3 /// KIR2DS4 /// KIR3DL3 /// KIR3DL3 /// KIR3DS1 (11738374_at) / Fold change /veh KIR2DL2 /// KIR2DL4 /// KIR2DL5A /// KIR2DL5B /// KIR2DS1 /// KIR2DS2 /// KIR2DS3 /// KIR2DS4 /// KIR3DL3 /// KIR3DL3 /// KIR3DS1 (11738374_at) / RFU C1QL1 (11718748_at) / Fold change /veh C1QL1 (11718748_at) / RFU TMPRSS4 (11747572_a_at) / Fold change /veh TMPRSS4 (11747572_a_at) / RFU HAMP (11756126_x_at) / Fold change /veh HAMP (11756126_x_at) / RFU RNFT2 (11725882_a_at) / Fold change /veh RNFT2 (11725882_a_at) / RFU NR4A2 (11747474_a_at) / Fold change /veh NR4A2 (11747474_a_at) / RFU ABCC12 (11746883_a_at) / Fold change /veh ABCC12 (11746883_a_at) / RFU TMEM136 (11760407_x_at) / Fold change /veh TMEM136 (11760407_x_at) / RFU CLDN22 /// WWC2 (11732394_at) / Fold change /veh CLDN22 /// WWC2 (11732394_at) / RFU HLA-DPB1 (11760878_x_at) / Fold change /veh HLA-DPB1 (11760878_x_at) / RFU SPINT1 (11716480_a_at) / Fold change /veh SPINT1 (11716480_a_at) / RFU GAP43 (11754022_s_at) / Fold change /veh GAP43 (11754022_s_at) / RFU A4GNT (11735810_at) / Fold change /veh A4GNT (11735810_at) / RFU PRB3 (11715151_x_at) / Fold change /veh PRB3 (11715151_x_at) / RFU TUBB4B (11761932_at) / Fold change /veh TUBB4B (11761932_at) / RFU CAPN14 (11732068_a_at) / Fold change /veh CAPN14 (11732068_a_at) / RFU TMCC2 (11721928_a_at) / Fold change /veh TMCC2 (11721928_a_at) / RFU IRGQ (11745062_a_at) / Fold change /veh IRGQ (11745062_a_at) / RFU FAM174B (11720279_a_at) / Fold change /veh FAM174B (11720279_a_at) / RFU TMPRSS4 (11748680_a_at) / Fold change /veh TMPRSS4 (11748680_a_at) / RFU FAM212B (11763350_a_at) / Fold change /veh FAM212B (11763350_a_at) / RFU PLEKHG5 (11743358_a_at) / Fold change /veh PLEKHG5 (11743358_a_at) / RFU ZSCAN30 (11745921_a_at) / Fold change /veh ZSCAN30 (11745921_a_at) / RFU CMKLR1 (11741424_a_at) / Fold change /veh CMKLR1 (11741424_a_at) / RFU LOC101060620 /// MAPK8IP1 (11723275_at) / Fold change /veh LOC101060620 /// MAPK8IP1 (11723275_at) / RFU SPTSSB (11747773_x_at) / Fold change /veh SPTSSB (11747773_x_at) / RFU PRSS12 (11739890_at) / Fold change /veh PRSS12 (11739890_at) / RFU BIN1 (11741810_x_at) / Fold change /veh BIN1 (11741810_x_at) / RFU WNT11 (11732464_a_at) / Fold change /veh WNT11 (11732464_a_at) / RFU C10orf10 (11716521_a_at) / Fold change /veh C10orf10 (11716521_a_at) / RFU C5orf56 (11738089_at) / Fold change /veh C5orf56 (11738089_at) / RFU CYB561 (11721691_x_at) / Fold change /veh CYB561 (11721691_x_at) / RFU ANKRD19P (11752326_a_at) / Fold change /veh ANKRD19P (11752326_a_at) / RFU OR2T12 /// OR2T33 /// OR2T8 (11738714_s_at) / Fold change /veh OR2T12 /// OR2T33 /// OR2T8 (11738714_s_at) / RFU VCAN (11748164_a_at) / Fold change /veh VCAN (11748164_a_at) / RFU JSRP1 (11732532_at) / Fold change /veh JSRP1 (11732532_at) / RFU KRTAP10-11 (11738290_x_at) / Fold change /veh KRTAP10-11 (11738290_x_at) / RFU MYO3A (11730013_a_at) / Fold change /veh MYO3A (11730013_a_at) / RFU EBF3 (11725865_a_at) / Fold change /veh EBF3 (11725865_a_at) / RFU CAMK2N1 (11719241_x_at) / Fold change /veh CAMK2N1 (11719241_x_at) / RFU C5orf56 (11738088_a_at) / Fold change /veh C5orf56 (11738088_a_at) / RFU OLFML3 (11715873_a_at) / Fold change /veh OLFML3 (11715873_a_at) / RFU LOC100653217 /// NTM (11731650_a_at) / Fold change /veh LOC100653217 /// NTM (11731650_a_at) / RFU MAPK11 (11762145_a_at) / Fold change /veh MAPK11 (11762145_a_at) / RFU FIZ1 (11724087_x_at) / Fold change /veh FIZ1 (11724087_x_at) / RFU OASL (11726364_x_at) / Fold change /veh OASL (11726364_x_at) / RFU SOX15 (11748057_x_at) / Fold change /veh SOX15 (11748057_x_at) / RFU CD79A (11719716_a_at) / Fold change /veh CD79A (11719716_a_at) / RFU HIST1H1D (11736915_at) / Fold change /veh HIST1H1D (11736915_at) / RFU CASKIN2 (11723855_a_at) / Fold change /veh CASKIN2 (11723855_a_at) / RFU LOC730098 (11760151_x_at) / Fold change /veh LOC730098 (11760151_x_at) / RFU OR4N2 (11742367_at) / Fold change /veh OR4N2 (11742367_at) / RFU PRRT2 (11749266_a_at) / Fold change /veh PRRT2 (11749266_a_at) / RFU SNX32 (11753110_a_at) / Fold change /veh SNX32 (11753110_a_at) / RFU CDHR5 (11726645_a_at) / Fold change /veh CDHR5 (11726645_a_at) / RFU RCAN1 (11760418_a_at) / Fold change /veh RCAN1 (11760418_a_at) / RFU FAM167A (11723789_a_at) / Fold change /veh FAM167A (11723789_a_at) / RFU FAM26E (11764081_at) / Fold change /veh FAM26E (11764081_at) / RFU ISYNA1 (11749810_s_at) / Fold change /veh ISYNA1 (11749810_s_at) / RFU ACY1 (11761880_at) / Fold change /veh ACY1 (11761880_at) / RFU 11764098_at / Fold change /veh 11764098_at / RFU SAMD14 (11745864_x_at) / Fold change /veh SAMD14 (11745864_x_at) / RFU NPB (11741838_a_at) / Fold change /veh NPB (11741838_a_at) / RFU TMPRSS6 (11731388_a_at) / Fold change /veh TMPRSS6 (11731388_a_at) / RFU KRTAP10-2 (11738614_at) / Fold change /veh KRTAP10-2 (11738614_at) / RFU ARHGAP8 /// PRR5-ARHGAP8 (11727945_x_at) / Fold change /veh ARHGAP8 /// PRR5-ARHGAP8 (11727945_x_at) / RFU KRTAP5-7 /// NADSYN1 (11734609_at) / Fold change /veh KRTAP5-7 /// NADSYN1 (11734609_at) / RFU RASL12 (11751679_a_at) / Fold change /veh RASL12 (11751679_a_at) / RFU CDKN2B (11736163_a_at) / Fold change /veh CDKN2B (11736163_a_at) / RFU PRF1 (11729649_at) / Fold change /veh PRF1 (11729649_at) / RFU, ZNF638 /// ZNF638-IT1 / Fold change vs veh, ZNF638 /// ZNF638-IT1 / RFU, PANK3 / Fold change vs veh, PANK3 / RFU, SH3YL1 / Fold change vs veh, SH3YL1 / RFU, ZEB2 / Fold change vs veh, ZEB2 / RFU, NRIP1 / Fold change vs veh, NRIP1 / RFU, PTTG1IP / Fold change vs veh, PTTG1IP / RFU, CAPN2 / Fold change vs veh, CAPN2 / RFU, MED14 / Fold change vs veh, MED14 / RFU, SNORA58 / Fold change vs veh, SNORA58 / RFU, C1orf63 / Fold change vs veh, C1orf63 / RFU, LRRFIP1 / Fold change vs veh, LRRFIP1 / RFU, NDUFAF7 / Fold change vs veh, NDUFAF7 / RFU, SLC12A2 / Fold change vs veh, SLC12A2 / RFU, IBTK / Fold change vs veh, IBTK / RFU, ESF1 / Fold change vs veh, ESF1 / Fold change vs veh, TMEM50B / RFU, TAOK1 / Fold change vs veh, TAOK1 / RFU, ACBD3 / Fold change vs veh, ACBD3 / RFU, TMA16 / Fold change vs veh, TMA16 / RFU, RWDD3 / Fold change vs veh, RWDD3 / RFU, BCAT1 / Fold change vs veh, BCAT1 / RFU, EDEM3 / Fold change vs veh, EDEM3 / RFU, TMEM33 / Fold change vs veh, TMEM33 / RFU, WDR75 / Fold change vs veh, WDR75 / RFU, AHCTF1 / Fold change vs veh, AHCTF1 / RFU, TFRC / Fold change vs veh, TFRC / RFU, ZDHHC17 / Fold change vs veh, ZDHHC17 / RFU, NOM1 / Fold change vs veh, NOM1 / RFU, ARL8B / Fold change vs veh, ARL8B / RFU, ZBTB11 / Fold change vs veh, ZBTB11 / RFU, TAMM41 / Fold change vs veh, TAMM41 / RFU, KIAA1704 /// LOC100996395 / Fold change vs veh, KIAA1704 /// LOC100996395 / RFU, ING1 / Fold change vs veh, ING1 / RFU, TRMT61B / Fold change vs veh, TRMT61B / RFU, FUBP3 / Fold change vs veh, FUBP3 / RFU, TP53 / Fold change vs veh, TP53 / RFU, TNKS2 / Fold change vs veh, TNKS2 / RFU, ZFP14 / Fold change vs veh, ZFP14 / RFU, ACTR2 / Fold change vs veh, ACTR2 / RFU, PPP3R1 / Fold change vs veh, PPP3R1 / RFU, PIK3R1 / Fold change vs veh, PIK3R1 / RFU, HNRNPA1 / Fold change vs veh, HNRNPA1 / RFU, RNF170 / Fold change vs veh, RNF170 / RFU, ZNF28 / Fold change vs veh, ZNF28 / RFU, RNGTT / Fold change vs veh, RNGTT / RFU, OGT / Fold change vs veh, OGT / RFU, BRD1 / Fold change vs veh, BRD1 / RFU, MARS / Fold change vs veh, MARS / RFU, ZNF655 / Fold change vs veh, ZNF655 / RFU, FAHD1 / Fold change vs veh, FAHD1 / RFU, BDP1 / Fold change vs veh, BDP1 / RFU, LRRCC1 / Fold change vs veh, LRRCC1 / RFU, ARID1A / Fold change vs veh, ARID1A / RFU, ZNF146 / Fold change vs veh, ZNF146 / RFU, ZNF330 / Fold change vs veh, ZNF330 / RFU, GPN3 / Fold change vs veh, GPN3 / RFU, C9orf123 / Fold change vs veh, C9orf123 / RFU, N4BP2L2 / Fold change vs veh, N4BP2L2 / RFU, ARFIP1 / Fold change vs veh, ARFIP1 / RFU, FAM179B / Fold change vs veh, FAM179B / RFU, BCL10 / Fold change vs veh, BCL10 / RFU, UHRF1BP1L / Fold change vs veh, UHRF1BP1L / RFU, BET1 / Fold change vs veh, BET1 / RFU, CNOT2 / Fold change vs veh, CNOT2 / RFU, ZNF268 / Fold change vs veh, ZNF268 / Fold change vs veh, ZNF507 / RFU, DGCR2 / Fold change vs veh, DGCR2 / RFU, WDSUB1 / Fold change vs veh, WDSUB1 / Fold change vs veh, HSP90B1 /// MIR3652 / RFU, ADSS / Fold change vs veh, ADSS / RFU, GK / Fold change vs veh, GK / RFU, ZNF148 / Fold change vs veh, ZNF148 / RFU, TAF9 / Fold change vs veh, TAF9 / RFU, SLC1A5 / Fold change vs veh, SLC1A5 / RFU, SLMO2 / Fold change vs veh, SLMO2 / RFU, ABCC4 / Fold change vs veh, ABCC4 / RFU, LOC101060439 /// RAP1B / Fold change vs veh, LOC101060439 /// RAP1B / RFU, RFX7 / Fold change vs veh, RFX7 / RFU, GTPBP10 / Fold change vs veh, GTPBP10 / RFU, CNEP1R1 / Fold change vs veh, CNEP1R1 / RFU, BIVM-ERCC5 /// ERCC5 / Fold change vs veh, BIVM-ERCC5 /// ERCC5 / RFU, ILF3 / Fold change vs veh, ILF3 / RFU 11762660_at / Fold change /veh 11762660_at / RFU VCAN (11757783_s_at) / Fold change /veh VCAN (11757783_s_at) / RFU DDX43 (11728927_at) / Fold change /veh DDX43 (11728927_at) / RFU KRT8 (11758188_x_at) / Fold change /veh KRT8 (11758188_x_at) / RFU NKD1 (11759106_at) / Fold change /veh NKD1 (11759106_at) / RFU SRD5A1 (11742802_a_at) / Fold change /veh SRD5A1 (11742802_a_at) / RFU TPSAB1 /// TPSB2 (11721975_s_at) / Fold change /veh TPSAB1 /// TPSB2 (11721975_s_at) / RFU GSTM3 (11746129_a_at) / Fold change /veh GSTM3 (11746129_a_at) / RFU IL23R (11737362_x_at) / Fold change /veh IL23R (11737362_x_at) / RFU TMEM51 (11727254_a_at) / Fold change /veh TMEM51 (11727254_a_at) / RFU PIWIL2 (11732686_x_at) / Fold change /veh PIWIL2 (11732686_x_at) / RFU ORM1 (11744905_x_at) / Fold change /veh ORM1 (11744905_x_at) / RFU CCDC152 (11743942_at) / Fold change /veh CCDC152 (11743942_at) / RFU ECM1 (11717891_a_at) / Fold change /veh ECM1 (11717891_a_at) / RFU IL23R (11748794_a_at) / Fold change /veh IL23R (11748794_a_at) / RFU TNFAIP8L3 (11732012_x_at) / Fold change /veh TNFAIP8L3 (11732012_x_at) / RFU MBOAT4 (11741988_at) / Fold change /veh MBOAT4 (11741988_at) / RFU 11764193_at / Fold change /veh 11764193_at / RFU TMEM53 (11763286_at) / Fold change /veh TMEM53 (11763286_at) / RFU MAGEB2 (11727129_at) / Fold change /veh MAGEB2 (11727129_at) / RFU TMEM200A (11744735_a_at) / Fold change /veh TMEM200A (11744735_a_at) / RFU CCDC152 (11751479_a_at) / Fold change /veh CCDC152 (11751479_a_at) / RFU FAM211A (11726209_a_at) / Fold change /veh FAM211A (11726209_a_at) / RFU RGS16 (11746705_a_at) / Fold change /veh RGS16 (11746705_a_at) / RFU VCAN (11755009_s_at) / Fold change /veh VCAN (11755009_s_at) / RFU RHOB (11743442_s_at) / Fold change /veh RHOB (11743442_s_at) / RFU RGS16 (11720943_a_at) / Fold change /veh RGS16 (11720943_a_at) / RFU RGS16 (11720944_at) / Fold change /veh RGS16 (11720944_at) / RFU, VPS4B / Fold change vs veh, VPS4B / RFU, CREB1 / Fold change vs veh, CREB1 / RFU, DNAJC13 / Fold change vs veh, DNAJC13 / RFU, GNAQ / Fold change vs veh, GNAQ / RFU, CDK5R1 / Fold change vs veh, CDK5R1 / RFU, ZRANB3 / Fold change vs veh, ZRANB3 / RFU, CUL4A / Fold change vs veh, CUL4A / RFU, CCNY / Fold change vs veh, CCNY / RFU, UFL1 / Fold change vs veh, UFL1 / RFU, COG3 / Fold change vs veh, COG3 / RFU, DIAPH2 / Fold change vs veh, DIAPH2 / RFU, SKA2 / Fold change vs veh, SKA2 / RFU, AFF3 / Fold change vs veh, AFF3 / RFU, LMF1 / Fold change vs veh, LMF1 / RFU, IPO11 / Fold change vs veh, IPO11 / RFU, DFFB / Fold change vs veh, DFFB / RFU, FOXP1 / Fold change vs veh, FOXP1 / RFU, CARD8 / Fold change vs veh, CARD8 / RFU, STRN3 / Fold change vs veh, STRN3 / RFU, ADK / Fold change vs veh, ADK / RFU, RASSF2 / Fold change vs veh, RASSF2 / RFU, WIPF1 / Fold change vs veh, WIPF1 / RFU, LARP1B / Fold change vs veh, LARP1B / RFU, RASA1 / Fold change vs veh, RASA1 / RFU, RB1 / Fold change vs veh, RB1 / RFU, PPFIA1 / Fold change vs veh, PPFIA1 / RFU, MAT2A / Fold change vs veh, MAT2A / RFU, CCT5 / Fold change vs veh, CCT5 / RFU, WDR92 / Fold change vs veh, WDR92 / RFU, CUX1 / Fold change vs veh, CUX1 / RFU, TTC7A / Fold change vs veh, TTC7A / RFU, TMEM135 / Fold change vs veh, TMEM135 / RFU, DEPTOR / Fold change vs veh, DEPTOR / RFU, CPM / Fold change vs veh, CPM / RFU, DNAJB6 / Fold change vs veh, DNAJB6 / RFU, CACNA2D3 / Fold change vs veh, CACNA2D3 / RFU, DTX4 / Fold change vs veh, DTX4 / RFU, TFCP2 / Fold change vs veh, TFCP2 / RFU, GMCL1 /// GMCL1P1 / Fold change vs veh, GMCL1 /// GMCL1P1 / RFU, AEBP2 / Fold change vs veh, AEBP2 / RFU, SNHG1 /// SNORD22 /// SNORD25 /// SNORD26 /// SNORD27 /// SNORD28 /// SNORD29 /// SNORD31 / Fold change vs veh, SNHG1 /// SNORD22 /// SNORD25 /// SNORD26 /// SNORD27 /// SNORD28 /// SNORD29 /// SNORD31 / Fold change (Aza/veh), C12orf56 (ProbeSet 11735607_a_at) / Fold change (ACY-1035/veh), C12orf56 (ProbeSet 11735607_a_at) / Fold change (Aza/veh), FGFR1OP (ProbeSet 11751329_s_at) / Fold change (ACY-1035/veh), FGFR1OP (ProbeSet 11751329_s_at) / Fold change (Aza/veh), VPS36 (ProbeSet 11739960_a_at) / Fold change (ACY-1035/veh), VPS36 (ProbeSet 11739960_a_at) / RFU SYPL1 (11715823_x_at) / Fold change /veh SYPL1 (11715823_x_at) / RFU IGFBP7 (11715501_s_at) / Fold change /veh IGFBP7 (11715501_s_at) / RFU REEP3 (11722064_at) / Fold change /veh REEP3 (11722064_at) / RFU IGLL1 (11728026_x_at) / Fold change /veh IGLL1 (11728026_x_at): dose or concentration left out as unconfirmed
# Settings: ProbeSet 11722463_a_at; LIST B
compound,measurement,value
Nc1ccc(-c2cccs2)cc1NC(=O)c1ccc2c(c1)cc(C1CC1)n2CCN1CCOCC1 [ACY-1035],"RFU, TNKS2",53.51 RFU
